Data published in patent US20060030616A1, “Anhydride modified cantharidin analogues useful in the treatment of cancer” (priority 1998, published 2006).
Where two headings read alike, the source gives them in different places.

Columns and labels:
[1] = system: protein phosphatase 1 (PP1); test: Inhibition of protein phosphatase 1, [32P]-phosphorylase substrate; assay type: biochemical, chicken; settings: for Inhibition of PP1 (%): initial screening at 100 mM (so in the source)
Protocol: (§1) All synthesised compounds were tested for their ability to inhibit protein phosphatases 1 and 2A. Initial investigations were carried out at 100 mM. Promising analogues were then assayed in triplicate for estimation of IC50 values.
(§2) Protein phosphatase 1 and 2A were partially purified from chicken skeletal muscle essentially as described by Cohen Protein phosphatase activity was measured at 37° C. in 50 mM Tris-HCl buffer (pH 7.4), 0.1 mM EDTA, 5 mM caffeine, 0.1% 2-mercaptoethanol and 1 mg/ml bovine serum albumin using […] [^32P]-phosphorylase as substrate. The total assay volume was […]. The assay conditions were restricted to 20% dephosphorylation to ensure linearity and inhibition of protein phosphatase activity was determined by including cantharidin or its analogues at the required concentrations in the reaction buffer. Reactions were terminated by the addition of 0.1 ml ice cold 20% trichloroacetic acid. Precipitated protein was pelleted by centrifugation and the radioactivity in the supernatant measured by liquid scintillation counting. Data is expressed as the percentage inhibition with respect to a control (absence of a competing compound) incubation.
(§3) Anhydrides and simple analogues were synthesised according to literature procedures (Eggelte et. al; 1973), and then subjected to a PP1 and PP2A bio-assay (see biochemistry) to determine their ability to inhibit these enzymes. The results of initial screening at 100 mMs are shown in Table 4, along with IC50 values in some instances.

[2] = target: protein phosphatase 2A (PP2A) (Gallus gallus, UniProt P48463); test: Inhibition of protein phosphatase 2A, [32P]-phosphorylase substrate; assay type: biochemical, chicken; parameters: inhibition: dose or concentration left out as unconfirmed
Protocol: as §1, §2, §3

[3] = system: protein phosphatase 2A (PP2A); settings: cited from earlier work; for IC50: background art
[4] = Stability under assay conditions; assay type: physicochemical; settings: PP assay conditions
L1210 cells = test: MTT cytotoxicity assay, 72 h; assay type: cell-based, murine; settings: L1210, p53 wt; read-out: IC50 (mean ± SE) after 72 h continuous exposure
Protocol: (§4) Cells in a subconfluent phase are transferred to 96-well microtitre plates. L1210 cells are plated at a density of 1000 cells/well in 100 μl medium, while all other cell lines are plated at a density of 2000-25000 cells/well. The cells are left for 24 h prior to treatment to ensure exponential growth has been achieved, 24 h after plating (day 0), 100 μl of phosphatase inhibitor is added to each well, control wells received 100 μl of medium only. Drug exposure time is 72 h (day 3). The effect of phosphatase inhibition is tested in triplicate over a concentration range of […]−1×10^−8 M. Growth inhibitory effects are evaluated using the MTT assay and absorbance read at […]. The IC50 is the drug concentration at which cell growth is 50% inhibited based on the difference of optical density on day 0 and day 3 of drug exposure. Cytotoxicity is evaluated using a spectrophotometric assay which determines the percentage of cell growth following exposure of the cells to various concentrations of the phosphatase inhibitors for a period of 72 hours. The subsequent dose response curve is used to calculate IC50 values (the drug concentration at which cell growth is 50% inhibited).
(§5) Anti-cancer screening of the protein phosphatase inhibitors is assessed using the MTT assay. This assay determines cell viability by the ability of mitochondrial dehydrogenase to produce formazan crystals from 3-(4,5-dimethylthiazol-2-yl)-2,5-diphenyltetrazolium bromide. The viable cell number/well is directly proportional to the production of formazan, which following solubilization, can be measured spectrophotometrically (540 nm). This technique is also used by the National Cancer Institute to screen for new anticancer agents.
(§6) As described herein a number of cantharidin analogues have been synthesised and tested for their anticancer activity in nine cancer cell lines using the MTT assay after 72 h exposure. These new analogues are shown in FIG. 2 and have been designated MK-1 through to MK-9.

nine cancer cell lines = test: MTT cytotoxicity assay, 72 h, ranges over cell line panel; assay type: cell-based
Protocol: as §4, §5, §6

ADDP cells = test: MTT cytotoxicity assay, 72 h; assay type: cell-based, human; settings: p53 mt, read-out: IC50 (mean ± SE) after 72 h continuous exposure
Protocol: as §4, §5, §6

HT29 cells = test: MTT cytotoxicity assay, 72 h; assay type: cell-based, human; settings: HT29, p53 mt; read-out: IC50 (mean ± SE) after 72 h continuous exposure
Protocol: as §4, §5, §6

A2780 cells = test: MTT cytotoxicity assay, 72 h; assay type: cell-based, human; settings: A2780, p53 wt; read-out: IC50 (mean ± SE) after 72 h continuous exposure
Protocol: as §4, §5, §6

HCT116 cells = test: MTT cytotoxicity assay, 72 h; assay type: cell-based, human; settings: HCT116, p53 wt; read-out: IC50 (mean ± SE) after 72 h continuous exposure
Protocol: as §4, §5, §6

SW480 cells = test: MTT cytotoxicity assay, 72 h; assay type: cell-based, human; settings: SW480, p53 mt; read-out: IC50 (mean ± SE) after 72 h continuous exposure
Protocol: as §4, §5, §6

WiDr cells = test: MTT cytotoxicity assay, 72 h; assay type: cell-based, human; settings: p53 mt, read-out: IC50 (mean ± SE) after 72 h continuous exposure
Protocol: as §4, §5, §6

143B cells = test: MTT cytotoxicity assay, 72 h; assay type: cell-based, human; settings: p53 mt, read-out: IC50 (mean ± SE) after 72 h continuous exposure
Protocol: as §4, §5, §6

HL60 cells = test: MTT cytotoxicity assay, 72 h; assay type: cell-based, human; settings: HL60, p53 nul; read-out: IC50 (mean ± SE) after 72 h continuous exposure
Protocol: as §4, §5, §6

[5] = target: protein phosphatase 1 (PP1); settings: background art; cited from earlier work
[6] = nine cell lines, read-out: IC50 range across all cell lines tested

protein phosphatase 2A (PP2A) (Gallus gallus, UniProt P48463), sequence (P48463 whole entry): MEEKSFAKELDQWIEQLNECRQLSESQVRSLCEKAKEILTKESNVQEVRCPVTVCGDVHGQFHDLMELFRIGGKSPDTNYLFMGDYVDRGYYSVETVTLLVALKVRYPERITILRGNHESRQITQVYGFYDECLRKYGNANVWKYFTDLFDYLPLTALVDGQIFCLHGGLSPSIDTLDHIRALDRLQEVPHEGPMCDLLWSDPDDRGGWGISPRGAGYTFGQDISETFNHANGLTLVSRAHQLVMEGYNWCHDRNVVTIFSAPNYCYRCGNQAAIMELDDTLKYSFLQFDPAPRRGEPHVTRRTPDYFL

## COC(=O)C1C2C=CC(S2)C1C(=O)OC (stereo not shown)
[1]
  Inhibition of PP1 (%): 3%

## O=C1NC(=O)C2C3CCC(S3)C12 (stereo not shown)
[1]
  Inhibition of PP1 (%): 15%

## O=C1OC(=O)C2C3CCC(O3)C12 (stereo not shown) [Compound 1]
[1]
  IC50: 2.4 µM
  Selectivity PP2A/PP1: 0.875
  Inhibition of PP1 (%): 90%
[2]
  inhibition: 97%

## O=C1OC(=O)C2C3C=CC(O3)C12 (stereo not shown) [Compound 2, norcantharidin, reference compound]
[2]
  inhibition: 95%

## O=C1OC(=O)[C@H]2[C@@H]1[C@H]1CC[C@H]2O1 [Compound 2, norcantharidin]
[3]; PP2A over PP1
  Previously reported PP2A selectivity: ~10 fold
[4]
  Stability under assay conditions: rapid conversion to the dicarboxylic acid
[2]; initial screening at 100 mM (so in the source)
  Inhibition of PP2A (%): 95%

## COC(=O)C1C2C=CC(O2)C1C(=O)OC (stereo not shown) [Compound 3]
[1]
  IC50: 50 µM
  Selectivity PP2A/PP1: >200
  Inhibition of PP1 (%): 46%
[2]
  inhibition: 6%

## CO[C@H]1OC(=O)C2C3CCC(O3)C21 (stereo partly shown) [Compound 4]
[1]
  Inhibition of PP1 (%): 13%
[2]
  inhibition: 11%

## CO[C@@H]1OC(=O)C2C3CCC(O3)C21 (stereo partly shown) [Compound 5]
[1]
  Inhibition of PP1 (%): 15%
[2]
  inhibition: 8%

## O=C1OC(O)C2C3CCC(O3)C12 (stereo not shown) [Compound 6]
[1]
  Inhibition of PP1 (%): 9%
[2]
  inhibition: 11%

## O=C1OCC2C3CCC(O3)C12 (stereo not shown) [Compound 7]
[2]
  inhibition: 21%

## O=C1NC(=O)C2C3C=CC(S3)C12 (stereo not shown) [MK-1]
L1210 cells
  IC50: > 1000 µM
Nine cancer cell lines; [6]
  IC50: > 1000 µM
ADDP cells
  IC50: > 1000 µM
HT29 cells
  IC50: > 1000 µM
A2780 cells
  IC50: > 1000 µM
HCT116 cells
  IC50: > 1000 µM
SW480 cells
  IC50: > 1000 µM
WiDr cells
  IC50: > 1000 µM
143B cells
  IC50: > 1000 µM
HL60 cells
  IC50: > 1000 µM

## O=C(O)C1C2C=CC(O2)C1C(=O)Oc1ccccc1 (stereo not shown) [MK-3]
L1210 cells
  IC50: 647 ± 132 µM
Nine cancer cell lines; [6]
  IC50: ≥ 247 µM
ADDP cells
  IC50: > 1000 µM
HT29 cells
  IC50: 530 ± 112 µM
A2780 cells
  IC50: 317 ± 17 µM
HCT116 cells
  IC50: > 1000 µM
SW480 cells
  IC50: 444 ± 27 µM
WiDr cells
  IC50: 620 ± 31 µM
143B cells
  IC50: 665 ± 225 µM
HL60 cells
  IC50: 247 ± 55 µM

## COC1OC(=O)C2C3CCC(O3)C12 (stereo not shown) [MK-5]
L1210 cells
  IC50: > 1000 µM
Nine cancer cell lines; colon lines, read-out: IC50 range in human colon cancer cell lines
  IC50: 28 to 247 µM
Nine cancer cell lines; leukaemia lines, read-out: IC50 range in leukaemia cells
  IC50: ≥ 323 µM
Nine cancer cell lines; ovarian lines, read-out: IC50 range in ovarian cells
  IC50: 260 to 567 µM
ADDP cells
  IC50: 260 ± 40 µM
HT29 cells
  IC50: 28 ± 1 µM
A2780 cells
  IC50: 567 ± 109 µM
HCT116 cells
  IC50: 143 ± 23 µM
SW480 cells
  IC50: 247 ± 14 µM
WiDr cells
  IC50: 31 ± 10 µM
143B cells
  IC50: > 1000 µM
HL60 cells
  IC50: 323 ± 13 µM

## C=C1[C@@H](O)[C@@H]2O[C@]3(CC[C@H](/C=C/[C@@H](C)[C@@H]4CC(C)=C[C@@]5(O[C@H](C[C@@](C)(O)C(=O)O)CC[C@H]5O)O4)O3)CC[C@H]2O[C@@H]1[C@@H](O)C[C@H](C)[C@H]1O[C@@]2(CCCCO2)CC[C@H]1C [Okadaic acid]
[3]
  IC50: 0.001 µM
[5]
  IC50: 0.06 µM

## O=C1SC(=O)[C@H]2[C@@H]1[C@@H]1CC[C@H]2O1 [endothal thioanhydride]
[3]
  Potency relative to cantharidin: three fold more potent than cantharidin

## calyculin
[3]
  IC50: 0.002 µM
[5]
  IC50: 0.0005 to 0.001 µM
